Source: patent publication US6136992A, “2-alkoxy estradiols and derivatives thereof” (The United States of America as represented by the …, priority 1998, dated 2000)
Counter-ions that a name gives are not always drawn. Like-named read-outs stand apart in the source and are kept apart here.

Legend:
[1] = tested on: DU-145 prostate cancer cells; test: NCI in vitro anticancer screen, DU-145 prostate cancer; assay type: cell-based; details: Homo sapiens, DU-145, read-out: cytotoxicity GI50, Prostate DU-145
Text: (§1) The effects of the analogs on cancer cell growth was investigated in the National Cancer Institute (NCI) Developmental Therapeutics Program's in vitro panel of approximately 55 cell lines (Grever et al., Seminars in Oncology 19:622 (1992), Alley et al., Cancer Research 48:589 (1988) and Montes et al., J. National Cancer Institute 83:757 (1991)). Representative results are listed in Table 1 for HOP-62 non-small-cell lung cancer cells, HCT-116 colon cancer cells, SF-539 central nervous system (CNS) cancer cells, UACC-62 melanoma cells, OVCAR ovarian cancer cells, SN12-C renal cancer cells, DU-145 prostate cancer cells, and MDA-MB-435 breast cancer cells.
(§2) ^a The cytotoxicity GI50 values are the concentrations

[2] = tested on: HOP-62 non-small-cell lung cancer cells; test: NCI in vitro anticancer screen, HOP-62 non-small-cell lung cancer; assay type: cell-based; details: Homo sapiens, HOP-62, read-out: cytotoxicity GI50, Lung HOP-62
Text: as §1, §2

tubulin = test: Inhibition of tubulin polymerization (turbidimetry at 350 nm); assay type: biochemical, bovine; details: for IC50: 26° C., 20 min, read-out: Inhibn of Tubulin Polymn IC50
Experimental: Four instruments were used, and two control reaction mixtures were present in each experiment. […] IC50 values were determined graphically. […]
Inhibition of tubulin polymerization was investigated using electrophoretically homogeneous tubulin from bovine brain.

[3] = tested on: OVCAR ovarian cancer cells; test: NCI in vitro anticancer screen, OVCAR ovarian cancer; assay type: cell-based; details: Homo sapiens, read-out: cytotoxicity GI50, Ovarian OVCAR
Text: as §1, §2

[4] = tested on: HCT-116 colon cancer cells; test: NCI in vitro anticancer screen, HCT-116 colon cancer; assay type: cell-based; details: Homo sapiens, HCT-116, read-out: cytotoxicity GI50, Colon HCT-116
Text: as §1, §2

[5] = tested on: SN12-C renal cancer cells; test: NCI in vitro anticancer screen, SN12-C renal cancer; assay type: cell-based; details: Homo sapiens, SN12C, read-out: cytotoxicity GI50, Renal SN12-C
Text: as §1, §2

[6] = tested on: all human cancer cell lines (approximately 55); test: NCI in vitro anticancer screen, all cell lines; assay type: cell-based
Text: as §1
^b Mean graph midpoint for all human cancer cell lines (approximately

UACC-62 melanoma cells = test: NCI in vitro anticancer screen, UACC-62 melanoma; assay type: cell-based; details: Homo sapiens, UACC-62, read-out: cytotoxicity GI50, Melanoma UACC-62
Text: as §1, §2

estrogen receptor = biological target: T1, estrogen receptor (Rattus norvegicus, UniProt P06211); test: Estrogen binding affinity assay (comparative radiometric binding, rat uterine cytosol); details: for RBA (relative binding affinity): 0° C., estradiol = 100
T1 construct: from tissue; host or cells: rat uterine cytosol
T1 sequence (P06211 1-600): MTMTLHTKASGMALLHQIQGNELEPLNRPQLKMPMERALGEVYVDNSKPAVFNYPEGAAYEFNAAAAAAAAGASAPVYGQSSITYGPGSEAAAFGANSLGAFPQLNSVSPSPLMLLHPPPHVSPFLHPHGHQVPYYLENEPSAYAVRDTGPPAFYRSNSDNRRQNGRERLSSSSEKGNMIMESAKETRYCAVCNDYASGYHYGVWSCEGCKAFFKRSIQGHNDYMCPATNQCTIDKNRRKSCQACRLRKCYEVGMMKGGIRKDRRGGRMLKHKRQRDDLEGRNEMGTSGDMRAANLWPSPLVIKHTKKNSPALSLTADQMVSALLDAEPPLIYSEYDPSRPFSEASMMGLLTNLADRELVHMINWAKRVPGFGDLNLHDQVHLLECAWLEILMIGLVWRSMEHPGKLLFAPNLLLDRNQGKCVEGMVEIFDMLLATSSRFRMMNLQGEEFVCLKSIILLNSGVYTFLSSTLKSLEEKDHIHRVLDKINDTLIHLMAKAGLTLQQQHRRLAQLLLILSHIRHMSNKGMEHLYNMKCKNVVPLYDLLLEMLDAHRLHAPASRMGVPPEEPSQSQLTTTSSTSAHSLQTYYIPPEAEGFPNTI
Experimental: The assay of (11), (12) and (16) were conducted at 0° C. for 20 hours, while those for (1) and (2) were performed at 0° C. for 18 hours.

[7] = tested on: MDA-MB-435 breast cancer cells; test: NCI in vitro anticancer screen, MDA-MB-435 breast cancer; assay type: cell-based; details: Homo sapiens, MDA-MB-435, read-out: cytotoxicity GI50, Breast MDA-MB-435
Text: The effects of the analogs on cancer cell growth was investigated in the National Cancer Institute (NCI) Developmental Therapeutics Program's in vitro panel of approximately 55 cell lines (Grever et al., Seminars in Oncology 19:622 (1992), Alley et al., Cancer Research 48:589 (1988) and Montes et al., J. National Cancer Institute 83:757 (1991)).

[8] = tested on: SF-539 central nervous system (CNS) cancer cells; test: NCI in vitro anticancer screen, SF-539 CNS cancer; assay type: cell-based; details: Homo sapiens, read-out: cytotoxicity GI50, CNS SF-539
Text: as §1, §2

solid tumors = details: cited from earlier work
[9] = read-out: MGM (mean graph midpoint for all human cancer cell lines), GI50
[10] = approximately 55 cell lines, read-out: MGM (mean graph midpoint for all human cancer cell lines), GI50

SMILES | GI50 [1] [µM] | GI50 [2] [µM] | IC50 (tubulin) [µM] | GI50 [3] [µM] | GI50 [4] [µM] | GI50 [5] [µM] | GI50 ([6]; read-out: GI50) [µM] | GI50 [6, 9] [µM] | GI50 (UACC-62 melanoma cells) [µM] | affinity for the estrogen receptor, in words (estrogen receptor) | RBA (relative binding affinity) (estrogen receptor; 20 hours) | GI50 [7] [µM] | GI50 [8] [µM] | GI50 [6, 10] [µM] | inhibition of tubulin polymerization, relative activity in words (tubulin; comparison with 2-methoxy estradiol (1) or 2-ethoxy estradiol (2)) | inhibition of neovascularization and growth of solid tumors in mice (solid tumors) | signs of toxicity at tumor-inhibiting doses (solid tumors; mice) | RBA (relative binding affinity) (estrogen receptor; 18 hours)
CCOc1cc2c(cc1O)C(=NO)C[C@@H]1[C@@H]2CC[C@]2(C)[C@@H](O)CC[C@@H]12 [Compound 11, 2-Ethoxy-6-Hydroximinoestra-1,3,5(10)-Triene-3,17β-Diol] | < 0.01 | < 0.01 | 0.62 | < 0.01 | < 0.01 | < 0.01 | < 0.01 | 0.04 | < 0.01 | no affinity for the estrogen receptor | < 0.001 | < 0.01 |  |  |  |  |  | 
CC(=O)Oc1cc2c(cc1OCC(F)(F)F)[C@H]1CC[C@]3(C)[C@@H](OC(C)=O)CC[C@H]3[C@@H]1CC2=O [Compound 6, 2-(2',2',2'-Trifluoroethoxy)-3,17β-Diacetyloxy-Estra-6-Oxo-1,3,5(10)-Triene] | 15 | 8.7 | 6 | 3.52 | 3.71 | 23.5 |  |  | 3.33 |  |  | 26.5 | 5.11 | 9.77 |  |  |  | 
CCOc1cc2c(cc1O)CC[C@@H]1[C@@H]2CC[C@]2(C)[C@@H](O)CC[C@@H]12 [Compound 2, 2-ethoxy estra-1,3,5(10)-trien-3,17β-diol] |  |  | 0.91 |  |  |  |  |  |  |  |  |  |  |  | over three times more active than 2-methoxy estradiol (1) |  |  | 
COc1cc2c(cc1O)CC[C@@H]1[C@@H]2CC[C@]2(C)[C@@H](O)CC[C@@H]12 [Compound 1, 2-methoxy estradiol, reference compound] |  |  | 2.9 |  |  |  |  |  |  |  |  |  |  |  |  | potent inhibitor of neovascularization of solid tumors and inhibits their growth | no apparent signs of toxicity | 0.245
CCOc1cc2c(cc1O)C(=NNS(=O)(=O)c1ccc(C)cc1)C[C@@H]1[C@@H]2CC[C@]2(C)[C@@H](O)CC[C@@H]12 [Compound 15, 2-Ethoxy-6-Tosylhydrazone-Estra-1,3,5(10)-Triene-3,17β-Diol] | 14.9 | 5.14 | > 40 | 3.18 | 6.67 | 12.1 |  |  |  |  |  |  | 3.45 | 6.16 |  |  |  | 
CCOc1cc2c(cc1O)CC[C@@H]1[C@@H]2CC[C@]2(C)C(N)CC[C@@H]12 (stereo partly drawn) [Compound 20, 2-Ethoxy-3-Hydroxy-17-α/β-Aminoestra-1,3,5(10)-Triene Hydrochloride] | 1.93 | 10.9 | > 40 | 1.25 | 3.15 | 5.24 |  |  | 3.61 |  |  | 1.74 | 3.99 | 3.31 |  |  |  | 
CCOc1cc2c(cc1O)[C@@H](O)C[C@@H]1[C@@H]2CC[C@]2(C)[C@@H](O)CC[C@@H]12 [Compound 14, 2-Ethoxyestra-1,3,5(10)-Triene-3,6α,17β-Triol] | 0.71 |  | 2.5 | 0.35 | 0.35 | 0.66 |  |  | 0.28 |  |  | 5.39 |  | 0.83 |  |  |  | 
CCOc1cc2c(cc1O)C(=NN)C[C@@H]1[C@@H]2CC[C@]2(C)[C@@H](O)CC[C@@H]12 [Compound 13, 2-Ethoxy-6-Hydrazone-estra-1,3,5(10)-Triene-3,17β-Diol] | 17 | 1.18 | 15 | 5.43 | 2.12 | 16.8 |  |  | 0.88 |  |  | 6.5 | 2.76 | 4.17 |  |  |  | 
CCOc1cc2c(cc1OC(C)=O)C(=O)C[C@@H]1[C@@H]2CC[C@]2(C)[C@@H](OC(C)=O)CC[C@@H]12 [Compound 7, 2-Ethoxy-3,17β-Diacetoxy-6-Oxoestra-1,3,5(10)-triene] | 19.8 | 20 | > 40 | 23.7 | 21.1 | 19.8 |  |  | 17.7 |  |  | 18.4 | 22.6 | 19.5 |  |  |  | 
C[C@]12CC[C@@H]3c4cc(OCC(F)(F)F)c(O)cc4CC[C@H]3[C@@H]1CC[C@@H]2O [Compound 3, 2-(2',2',2'-trifluoroethoxy)estra-3,17β-diol] |  |  | 1.7 |  |  |  |  |  |  |  |  |  |  |  |  |  |  | 
CCOc1cc2c(cc1O)C(=O)C[C@@H]1[C@@H]2CC[C@]2(C)[C@@H](O)CC[C@@H]12 [Compound 10, 2-Ethoxy-6-Oxoestra-1,3,5(10)-Triene-3,17β-Diol] | 0.17 | 0.03 | 4.8 | 0.63 | 0.02 | 0.18 |  | 0.13 | 0.01 |  |  | < 0.01 | 0.71 |  |  |  |  | 
CCOc1cc2c(cc1O)C(=NOC)C[C@@H]1[C@@H]2CC[C@]2(C)[C@@H](O)CC[C@@H]12 [Compound 16, 2-Ethoxy-6-(O-Methyl)hydroximino-Estra-1,3,5(10)-Triene-3,17β-Diol] | 0.32 | < 0.01 | 0.75 | < 0.01 | < 0.01 | 0.26 |  | 0.24 | < 0.01 | no affinity for the estrogen receptor | < 0.001 | 0.02 |  |  |  |  |  | 
